The nature of the series: Dissolution of RebD and RebM. The note with it: without maltooligosaccharides. The format is physicochemical.

In the case of `C=C1C[C@@]23CC[C@H]4[C@@](C)(CCC[C@@]4(C)C(=O)O[C@@H]4O[C@H](CO)[C@@H](O)[C@H](O[C@@H]5O[C@H](CO)[C@@H](O)[C@H](O)[C@H]5O)[C@H]4O[C@@H]4O[C@H](CO)[C@@H](O)[C@H](O)[C@H]4O)[C@@H]2CC[C@]1(O[C@@H]1O[C@H](CO)[C@@H](O)[C@H](O[C@@H]2O[C@H](CO)[C@@H](O)[C@H](O)[C@H]2O)[C@H]1O[C@@H]1O[C@H](CO)[C@@H](O)[C@H](O)[C@H]1O)C3` [RebM, Rebaudioside M], the dissolution entry is given as “do not dissolve completely”.

With `C=C1C[C@@]23CC[C@H]4[C@@](C)(CCC[C@@]4(C)C(=O)O[C@@H]4O[C@H](CO)[C@@H](O)[C@H](O)[C@H]4O[C@@H]4O[C@H](CO)[C@@H](O)[C@H](O)[C@H]4O)[C@@H]2CC[C@]1(O[C@@H]1O[C@H](CO)[C@@H](O)[C@H](O[C@@H]2O[C@H](CO)[C@@H](O)[C@H](O)[C@H]2O)[C@H]1O[C@@H]1O[C@H](CO)[C@@H](O)[C@H](O)[C@H]1O)C3` [RebD, Rebaudioside D], the dissolution result was “do not dissolve completely”.

For the origin of these results see patent publication US12185743B2, “Processes for transglucosylation of steviol glycosides” (Beijing Gingko-Group Biological Technology Co., Ltd., priority 2019, dated 2025).
